“Also recorded” adds a separate entry of the source.
Key:
[1] = test system: K7M2 mouse osteosarcoma cell line; assay: Invasion of K7M2 osteosarcoma tumour spheroids into 3D 1.5 mg/ml collagen-medium model ECM; type: cell-based; details: monitored for 14 days
Protocol: Bone extracellular matrix consists primarily of calcified collagen type I. Calcification is invariably disrupted around metastasizing osteosarcoma tumours, allowing tumour cells to migrate through the extracellular matrix. Thus, we chose to model the bone/osteosarcoma extracellular matrix with a 3D 1.5 mg/ml collagen gel. This concentration of collagen gel promoted invasion by the K7M2 mouse osteosarcoma cell line (FIG. 9).
Collagen gels (1.5 mg/ml) in DMEM complete medium as model bone extracellular matrix was prepared from a stock 5 wt % collagen gel (IBIDI, Germany). K7M2 cells were cultured in DMEM complete medium supplemented with 10% foetal calf serum, antibiotics, and pyruvate. The cultures were maintained in T-75 cm^2 culture flasks and incubated at 37° C. and 5% CO2 in a humidified incubator. At 70% confluence, cells were detached from the surface of the flasks after incubating for 2 min at room temperature with 4 ml of trypsin-EDTA. The cell suspension was then centrifuged at 1400 rpm for 5 min at room temperature to pellet the cells. […]
Cell invasion was monitored for 14 days (FIG. 10). […]

[2] = cited from earlier work
U87 GBM cells [3] = test system: U87 GBM cells
Protocol: Calcein AM (acetoxymethyl), a non-fluorescent ester derivative of the fluorescent calcein dye, was used to determine the viability and integrity of spheroids. Spheroids were soaked in 1 uM calcein-AM in live cell imaging buffer for 45 minutes in a humidified 5% CO2 incubator. After incubation, the calcein-AM solution was removed, spheroids were washed three times with PBS and transferred with 50 μl of media to the top of hyaluronic acid-serum gels in chamber slide wells prepared as above. In controls, spheroids were placed into the wells with 300 μl of MEM complete supplemented medium.
(§1) Migration of cells from the spheroids, cell viability and the vertical position of the spheroid in the well were recorded on days 4, 7 and 16 using bright field, epifluorescence or confocal microscopy, before the samples were returned to the incubator to continue the experiment.

U87 GBM cells [4] = assay: Migration and proliferation of cells from U87 tumour spheroids in 3D hyaluronic acid-serum model brain ECM; type: cell-based; details: 5, 10 and 20 mM trientine mixed into 2 wt % HA-serum model ECM; days 1, 3, 6, 10
Description: We first established a 3D extracellular matrix (ECM) model for brain consisting of hyaluronic acid mixed with serum proteins to support GBM cell metabolism. We then used tumour spheroids, cultured from U87 GBM cell line cells, as 3D tumour models that we implanted into the hyaluronic acid-serum model brain ECM.
We fabricated hyaluronic acid-serum model brain ECMs containing 2 wt %, 3.5 wt % and 5 wt % hyaluronic acid to represent low, normal and high hyaluronic acid concentrations/levels of molecular entanglement with respect to brain extracellular matrix. The low hyaluronic acid concentration model ECMs can be expected to mimic an in vivo situation where there is substantial hyaluronic acid degradation and the high hyaluronic acid concentration was set to exceed the average hyaluronic acid concentration in brain ECM by 50%.
The different concentrations of hyaluronic acid-serum for model ECMs were prepared by mixing hyaluronic acid with MEM complete media and foetal calf serum. […]
as §1

U87 cells = details: different trientine concentrations in phosphate-buffered saline
Protocol: FIG. 6: A. Optical images showing the effect of crosslinking 3D model brain ECM ionically with 5, 10 and 20 mM trientine on the migration of glioblastoma U87 cells from tumour spheroids compared to controls with no trientine crosslinking. […] B. Quantification of the extent of cancer cell migration in the 3D model brain ECM with addition of different trientine concentrations. C.

For `COC(=O)C1=CO[C@@H](O)[C@@H]2C(CO)=CC[C@H]12` [genipin], the “cell invasion of model collagen extracellular matrix” value ([1]; 0.05 wt % genipin in 1.5 mg/ml collagen gel) is listed as “only minimal invasion”, the “cell invasion of model collagen extracellular matrix” value ([1]; 0.3 wt % genipin in 1.5 mg/ml collagen gel) is listed as “no observable cell invasion” and the acute toxicity ([2]; literature statement) is listed as “low acute toxicity”. The LD50 ([2]; mouse, in vivo, iv) was 153 mg/kg.

With `Cc1cc2nc3c(=O)[nH]c(=O)nc-3n(C[C@H](O)[C@H](O)[C@H](O)CO)c2cc1C` [riboflavin] the “cell metabolic activity (calcein-AM staining)” value (U87 GBM cells [3]) was “remained metabolically active”.

For `NCCNCCNCCN` [trientine], the “cell migration from U87 tumour spheroids” value (U87 GBM cells [4]) was “inhibited in a trientine-concentration dependent manner; also recorded: clearly inhibited” and the “toxicity to U87 cells (live/dead cell analysis)” value (U87 cells) was “non-toxic to U87 cells”.

Source: patent US20230116113A1, “USE OF COMPOUNDS THAT ARE ABLE TO CROSS-LINK THE EXTRACELLULAR MATRIX FOR PREVENTING OR INHIBITING THE MIGRATION OF CANCER CELLS” (CAMBRIDGE ENTERPRISE LIMITED, priority 2020, published 2023)
